From ChEMBL document CHEMBL1212908, “Flavonoids in the poisonous plant Oxytropis falcata” (J Nat Prod, 2010) come the findings set out here.

Assay [1] concerns Radical scavenging activity. Nature of the assay: Antioxidant activity assessed as DPPH free radical scavenging activity after 30 mins. It is filed as functional. For orientation: DPPH is a stable violet radical that fades when it is reduced.
Assay [2] deals with HL-60. Nature of the assay: Cytotoxicity against human HL60 cells by MTT assay. The assay is classed as functional, cell-based. In general terms: Formazan colour is commonly taken as a measure of viable cells.

As usually defined, the IC20 is the concentration needed for an effect of 20%. As usually defined, the IC50 is the point on the concentration scale where inhibition reaches its midpoint. Read a high IC50 as weaker potency in that assay.

Turning to `COc1c(O)cc2c(c1OC)O[C@H]1c3ccc(O)cc3OC[C@@H]21`, in assay [1], the IC20 was found to be 3.8 µM. In assay [2], this compound registered an IC50 of more than 50 µM.

Consider `COc1ccc([C@@H]2COc3cc(O)c(C(c4ccc(O)cc4O)C(O)Cc4ccc(O)cc4)cc3C2)c(O)c1OC` (some centres not stated) [OXYTROPISOFLAVAN A], for which the IC20 in assay [1] is more than 50 µM. The compound further had a 50% inhibitory concentration (IC50) in assay [2] of more than 50 µM. On to `COc1ccc([C@@H]2COC3=CC(=O)CC[C@]3(O)C2)c(O)c1OC` [OXYTROPISOFLAVAN B], for which the IC20 in assay [1] was more than 50 µM. The IC50 in assay [2] is more than 50 µM.

In the case of VITAMIN E, the IC20 in assay [1] was 7.6 µM.
